{"source": "patent US20140357512A1", "about": "“HISTONE DEACETYLASE (HDAC) BIOMARKERS IN MULTIPLE MYELOMA” (priority 2013, published 2014)", "test_system": "human myeloma cell line MM.1S", "assay": "SILAC acetylated-lysine peptide profiling, HDAC inhibitor vs DMSO (light/heavy ratio)", "type": "cell-based", "from_the_text": "An embodiment of the invention comprises utilizing the SILAC method in order to quantitate changes in protein expression between two or more populations of cells. The SILAC method is a technique based on mass spectrometry that detects differences in protein abundance among samples using non-radioactive isotopic labeling. The SILAC method is known in the art, and described in detail in Ong et al., “Stable Isotope Labeling by Amino Acids in Cell Culture, SILAC, as a Simple and Accurate Approach to Expression Proteomics”, Molecular & Cellular Proteomics, vol. 1, pp. 376-386 (2002), which is incorporated herein by reference in its entirety.\nBriefly, the SILAC method involves growing two populations of cells in cell culture. The first population of cells is grown in growth media containing normal amino acids (“normal media”). The second population of cells is grown in media lacking a standard essential amino acid (such as lysine), but is then supplemented with a non-radioactive, isotopically labeled form of that essential amino acid (such as lysine labeled with ^13C atoms, rather than normal ^12C atoms), which is called “heavy media”. When the two populations of cells are each growing in the medium, they incorporate the amino acids into all of their proteins. The growth of cells maintained in the heavy media is no different from that in normal media. All peptides containing the heavy amino acids are heavier than their normal counterparts. The cells from each of the two populations of cells are lysed. The lysates from each of the two cell populations are then combined. The combined cell lysates are then analyzed by mass spectrometry. Pairs of chemically identical peptides of different stable isotope composition can be differentiated in a mass spectrometer due to their difference in mass. The ratio of peak intensities in the mass spectrum for such peptide pairs reflects the abundance ratio for the two proteins.\nThis example describes SILAC studies that were performed to compare the effects of three different HDAC inhibitors (Compound A, Compound B, and tubastatin A) to a control on a human multiple myeloma cell line. The HDAC inhibitors were also compared amongst themselves to determine differences in their effects.\nA human myeloma cell line MM.1S was grown using either ^12C (light) or ^13C (heavy) lysine containing culture medium. The “heavy” cells were treated with DMSO as the control, and the “light” cells were treated with a single HDAC inhibitor at 37° C. for 6 hours. The heavy and light cells were lysed, and the lysates were mixed in 1:1 ratio and digested with the protease trypsin. The acetylated lysine containing peptides (due to the action of the HDAC inhibitor) in the digested peptide pool were captured by a non-specific anti-acetylated lysine antibody cocktail (the antibodies identify both light and heavy acetylated peptides), and subjected to mass spectrometry analysis in order to identify thousands of individual peptides.\nThousands of peptides were identified in pairs (^12C and ^13C) due to their known mass differences. The amino acid sequence and quantitative ratio (Light/Heavy) of a given peptide in two differentially treated cell lysates were then determined and annotated with their possible protein (gene) sources.\nAs stated above, three HDAC inhibitors (Compound A, Compound B, and Tubastatin A) were used. Thus, the SILAC method was performed three times, with a different HDAC inhibitor compared to a control each time. Accordingly, there are three pairs of quantitative data in the table below, i.e., Compound A:DMSO, Compound B:DMSO, and Tubastatin A:DMSO. A cut-off of 1.30 fold of change (increase or decrease) was then used to determine “changed” or “+” in the table, and any peptides with a fold of change less than 1.3 fold were determined to be “unchanged” or “0” in the table. Those peptides that were not identified were marked as “NA” in the table. […]", "data": [{"smiles": "O=C(NO)c1cnc(NC2(c3cccc(F)c3)CCCCC2)nc1", "note": "[Compound B, 2-((1-(3-fluorophenyl)cyclohexyl)amino)-N-hydroxypyrimidine-5-carboxamide]", "values": [{"measurement": "L/H ratio of acetylated peptide", "setting": "VETFSGVYK(ac)K (SEQ ID NO: 445), 40S ribosomal protein S7 [178], RPS7", "value": "−0.78", "unit": "log 2"}, {"measurement": "L/H ratio of acetylated peptide", "setting": "VEWAK(ac)FQER (SEQ ID NO: 447), Splicing factor 3A subunit 1 [251], SF3A1", "value": "−0.55", "unit": "log 2"}, {"measurement": "light to heavy ratio (L/H ratio) of acetylated peptide, log 2 scale", "setting": "VGIVGK(ac)YGTR (SEQ ID NO: 250), 60S ribosomal protein L37a [13], RPL37A", "value": 0.00}, {"measurement": "L/H ratio of acetylated peptide", "setting": "VIIVVK(ac)DGPGFYTTR (SEQ ID NO: 401), Trifunctional enzyme subunit alpha mitochondrial [540], HADHA", "value": "−0.70", "unit": "log 2"}, {"measurement": "L/H ratio of acetylated peptide TNEK(ac)VELQELNDR (SEQ ID NO: 122)", "setting": "VIM [104], log 2 scale, drug vs DMSO", "value": 0.00}, {"measurement": "L/H ratio of acetylated peptide FANYIDK(ac)VR (SEQ ID NO: 118)", "setting": "VIM [120], log 2 scale, drug vs DMSO", "value": 0.00}, {"measurement": "L/H ratio of acetylated peptide […](ac)GQGK (SEQ ID NO: 119)", "setting": "VIM [139], log 2 scale, drug vs DMSO", "value": 0.00}, {"measurement": "L/H ratio of acetylated peptide SK(ac)[…] (SEQ ID NO: 121)", "setting": "VIM [294], log 2 scale, drug vs DMSO", "value": 0.00}, {"measurement": "L/H ratio of acetylated peptide LQDEIQNMK(ac)EEMAR (SEQ ID NO: 120)", "setting": "VIM [373], log 2 scale, drug vs DMSO", "value": 0.00}, {"measurement": "light to heavy ratio (L/H ratio) of acetylated peptide, log 2 scale", "setting": "VVVGK(ac)[…] (SEQ ID NO: 193), Protein disulfide-isomerase A4 [533], PDIA4", "value": 0.00}, {"measurement": "L/H ratio of acetylated peptide", "setting": "VYISK(ac)CYR (SEQ ID NO: 394), Isoform 1 of Regulator of micro-tubule dynamics protein 3 [426], FAM82A2", "value": "−0.85", "unit": "log 2"}, {"measurement": "light to heavy ratio (L/H ratio) of acetylated peptide TLLIK(ac)TVETR (SEQ ID NO: 269)", "setting": "Vimentin [445], VIM, drug:DMSO", "value": 0.00, "unit": "log 2"}, {"measurement": "L/H ratio of acetylated peptide", "setting": "WTPEVK(ac)[…] (SEQ ID NO: 442), Rho-related GTP-binding protein RhoC [104], RHOC", "value": "−0.39", "unit": "log 2"}, {"measurement": "light to heavy ratio (L/H ratio) of acetylated peptide IAAYK(ac)SILQER (SEQ ID NO: 531)", "setting": "X-ray repair cross-complementing protein 5 [265], gene XRCC5, inhibitor:DMSO", "value": 0.00, "unit": "log 2"}, {"measurement": "light to heavy ratio (L/H ratio) of acetylated peptide EEAIK(ac)FSEEQR (SEQ ID NO: 509)", "setting": "X-ray repair cross-complementing protein 5 [648], gene XRCC5, inhibitor:DMSO", "value": 0.00, "unit": "log 2"}, {"measurement": "light to heavy ratio (L/H ratio) of acetylated peptide […](ac)HFQD (SEQ ID NO: 355)", "setting": "X-ray repair cross-complementing protein 6 [605], XRCC6, drug:DMSO", "value": "−0.74", "unit": "log 2"}, {"measurement": "L/H ratio of acetylated peptide ALQEK(ac)VEIK (SEQ ID NO: 123)", "setting": "XRCC5 [665], log 2 scale, drug vs DMSO", "value": 0.00}, {"measurement": "L/H ratio of acetylated peptide", "setting": "YHVSEK(ac)PYGIVEK (SEQ ID NO: 424), NADH dehydrogenase [ubiquinone] 1 beta subcomplex subunit 6 [93], NDUFB6", "value": "−1.00", "unit": "log 2"}, {"measurement": "L/H ratio of acetylated peptide", "setting": "YK(ac)[…] (SEQ ID NO: 417), Microsomal glutathione S-transferase 3 [37], MGST3", "value": "−0.59", "unit": "log 2"}, {"measurement": "light to heavy ratio (L/H ratio) of acetylated peptide, log 2 scale", "setting": "YLENGK(ac)ETLQR (SEQ ID NO: 163), Putative HLA class I histocompatibility antigen alpha chain H [200], HLA-H", "value": 0.00}, {"measurement": "light to heavy ratio (L/H ratio) of acetylated peptide, log 2 scale", "setting": "YNCDK(ac)MICR (SEQ ID NO: 254), Ubiquitin-605 ribosomal protein L40 [93], UBA52", "value": 0.00}, {"measurement": "L/H ratio of acetylated peptide", "setting": "YPPPYK(ac)HFWTAES (SEQ ID NO: 461), Isoform 2 of Ubiquitin-associated protein 2-like [976], UBAP2L", "value": "−0.50", "unit": "log 2"}, {"measurement": "L/H ratio of acetylated peptide", "setting": "YTEQITNEK(ac)LAMVK (SEQ ID NO: 423), NADH dehydrogenase [ubiquinone] 1 alpha subcomplex subunit 5 [55], NDUFA5", "value": "−0.40", "unit": "log 2"}, {"measurement": "light to heavy ratio (L/H ratio) of acetylated peptide, log 2 scale", "setting": "[…](ac)AAVR (SEQ ID NO: 220), Tricarboxylate transport protein mitochondrial [97], SLC25A1", "value": 0.00}, {"measurement": "light to heavy ratio (L/H ratio) of acetylated peptide, log 2 scale", "setting": "[…](ac)DETEFR (SEQ ID NO: 137), UPF0568 protein C14orf166 [20], C14orf166", "value": 0.00}, {"measurement": "L/H ratio of acetylated peptide", "setting": "[…](ac)DGEIYCK (SEQ ID NO: 383), Cysteine and glycine-rich protein 1 [161], CSRP1", "value": "−0.67", "unit": "log 2"}, {"measurement": "L/H ratio of acetylated peptide", "setting": "[…](ac)EKLNER (SEQ ID NO: 406), 60 kDa heat shock protein mitochondrial [387], HSPD1", "value": 0.40, "unit": "log 2"}, {"measurement": "L/H ratio of acetylated peptide", "setting": "[…](ac)FDENAK (SEQ ID NO: 429), Phosphoglycerate kinase 1 [291], PGK1", "value": 0.60, "unit": "log 2"}, {"measurement": "L/H ratio of acetylated peptide", "setting": "[…](ac)FIAR (SEQ ID NO: 441), Protein RCC2 [293], RCC2", "value": 0.75, "unit": "log 2"}, {"measurement": "light to heavy ratio (L/H ratio) of acetylated peptide, log 2 scale", "setting": "[…](ac)FSDDHYR (SEQ ID NO: 190), NAD(P) transhydrogenase mitochondrial [100], NNT", "value": 0.00}, {"measurement": "L/H ratio of acetylated peptide", "setting": "[…](ac)FVER (SEQ ID NO: 460), cDNA FLJ40024 fis clone STOMA2007745 highly similar to UBIQUITIN-[…] E1 [119], UBA1", "value": 0.44, "unit": "log 2"}, {"measurement": "L/H ratio of acetylated peptide", "setting": "[…](ac)GDSK(ac)NAK (SEQ ID NO: 392), Histone acetyltransferase p300 [1542:1546], EP300", "value": 0.53, "unit": "log 2"}]}]}
